According to patent US5789387A (priority 1996, dated 1998):
“Also recorded” adds a separate entry of the source.

Experiments:
[1] = tested on: Candida albicans strain B311; assay: quantitative recovery of viable yeast from kidneys in rat model of systemic candidiasis, continuous intravenous infusion; assay type: in vivo; conditions: for decrease in viable yeast per gram of tissue / Geometric mean log10 CFU/gm ± S.E.M. (kidney): 96 h; for Geometric mean log10 CFU/gm ± S.E.M. (kidney): inoculum 1×10^6 cfu/rat
Procedure: (§1) Candida albicans strain B311 (originally obtained from H. Hasenclever, National Institutes of Health, Bethesda, Md.) was employed in the following examples. For growth of yeast inocula, frozen culture aliquots were inoculated into 2% glucose, 1% yeast extract broth and grown at 35° C. with shaking until the culture entered the early log phase of growth. Yeast were collected by centrifugation, washed, and adjusted to the appropriate concentration in sterile phosphate-buffered saline (PBS).
A rat model of systemic candidiasis was used to assess the effect of nikkomycin Z in vivo. […] The inoculum and the subsequent drug treatment was administered via an indwelling catheter placed in the jugular vein that was "tunneled" out the back and placed inside a protective, flexible, metal sheath. For both experiments, therapy was initiated 12-14 h after infection with nikkomycin Z (formulated in a vehicle of 2% dimethylsulfoxide (DMSO)/ 98% dextrose (5%)) administered continuously at 330 mg/kg/day; control animals were treated with vehicle. In the first experiment, animals were treated continuously for 72 h. In the second experiment, animals were treated continuously for 96 h. Drug and vehicle were administered continuously at a volume of one ml per hour. At 7 or 9 h after cessation of treatment, respectively, all animals were euthanized for the removal of kidneys, which were cultured for the quantitative recovery of viable yeast. From each animal, the two kidneys were placed into tared, sterile tubes (one tube per animal, i.e., two kidneys per tube) containing ten ml of sterile PBS. The kidneys were then weighed and the tube contents homogenized. Organ homogenates were diluted in serial fashion and cultured on Sabourauds agar plates containing 50 μg/ml chloramphenicol for the quantitative recovery of viable yeast. The plates were incubated overnight at room temperature and colonies enumerated. Calculations were made to determine the log10 cfu's per gram of tissue for each animal.
Experiments similar to those described above were performed to determine the effectiveness of low doses of Nikkomycin Z in reducing the yeast load in organs of infected animals in the rat model of systemic candidiasis. Experimental details such as yeast used, growth conditions, rats used, and methods of inoculation and drug delivery were as described above in Sections 6.1 and 6.2. Inoculum levels were 1×10^6 cfu/rat. Therapy was initiated 14 h after yeast infection and nikkomycin Z was administered continuously at either 33 or 100 mg/kg/day for a total of 96 h; control animals were treated with vehicle. Test solutions were delivered from syringes using infusion pumps; syringes and solutions were changed daily. After cessation of treatment, all animals were euthanized for the removal of kidneys, which were cultured for the quantitative recovery of viable yeast. Organ removal and culture were done as above. Organ homogenates were cultured on Sabourauds agar and incubated overnight for the enumeration of yeasts as above.

Candida albicans B311 = assay: prevention of mortality in rats infected with lethal doses of Candida albicans, continuous intravenous infusion; assay type: in vivo, rat infected with Candida albicans B311
Procedure: as §1
Using methods similar to those described above, rats were infected intravenously with a higher inoculum level; i.e., 3.2×10^6 cfu/rat, to induce mortalities. Fourteen hours after infection, treatment by continuous infusion was initiated with nikkomycin Z administered continuously at 330 mg/kg/day; control animals were treated with vehicle. Treatment was continued for 96 h, then animals were held for a total of 28 days for observation of mortalities.
Experiments similar to those described above in this Section were performed to determine the effect of low doses of nikkomycin Z in preventing mortality in animals infected with Candida albicans. Using methods similar to those described above, rats were infected intravenously with 1.05×10^7 cfu/rat of C. albicans B311, a dose that would normally rapidly induce mortalities. The inoculum and the subsequent drug treatment was administered via an indwelling catheter placed in the jugular vein. For the experiment, therapy was initiated 14 h after infection with yeast and nikkomycin Z was administered continuously at 33 or 100 mg/kg/day; control animals were treated with vehicle. All animals were treated continuously for 96 h, with test solutions delivered from syringes using infusion pumps. Syringes and solutions were changed daily. Animals were held for a total of 30 days for observation of mortalities.

[2] = plasma levels after subcutaneous sustained release gel (PLURONIC F127) or single intravenous administration, HPLC; assay type: in vivo; conditions: rat, single intravenous administration, read-out: mean residence time (MRT), nikkomycin Z total compounds
[3] = plasma concentration of nikkomycin Z following continuous intravenous administration, HPLC/SPE; assay type: in vivo, rat (outbred male albino, strain S/A)
Procedure: The experimental animals were outbred male albino rats (strain S/A, Simonsen Laboratories, Gilroy, Calif.), 350-400 g average weight, housed one per cage, fed rodent chow and water ad libitum, and identified by ear tags. Rats receiving continuous intravenous administration of nikkomycin Z were cannulated in the left carotid artery and right jugular vein.
Continuous intravenous administration involved a 2 hour loading dose of 20 mg/kg/hour nikkomycin Z and then an infusion rate of 33 mg/kg/day over 24 hours. The formulation contained 1 mg/ml nikkomycin Z in sterile 5% dextrose. Blood samples of 1 ml were withdrawn at 0, 0.25, 0.5, 1, 2, 4, 6 and 12 h.
Nikkomycin Z was extracted from the plasma samples using solid phase extraction (SPE) columns. The SPE matrix was phenylboronate (PBA) which covalently binds nikkomycin Z at high pH. After washing with 20 mM sodium carbonate/bicarbonate alkaline buffer, nikkomycin Z was eluted from the extraction column with a 20 mM glycine solution at pH 1.2. Following a drying and reconstitution step, nikkomycin Z plasma concentration was determined using reverse phase HPLC. The plasma concentrations of nikkomycin Z derived from the HPLC analysis were plotted against time.

Coccidioides immitis = conditions: in vitro, literature; cited from earlier work
Candida albicans [4] = conditions: cited from earlier work
Candida albicans [5] = conditions: oral, 10-14 day period; cited from earlier work
C. albicans = conditions: subcutaneous, high concentrations; cited from earlier work
Candida = conditions: subcutaneous injections beginning one hour after inoculation; cited from earlier work
chitin synthase = conditions: in words; cited from earlier work
plants, fish, or mammals = conditions: under reasonable doses; cited from earlier work
chitin synthesis = conditions: subcutaneous, high concentrations; cited from earlier work
Candida albicans [6] = conditions: in vitro; prolonged exposure; literature; cited from earlier work
[7] = bolus intravenous once daily, up to 20 days

C[C@@H]([C@H](N)C(=O)N[C@H](C(=O)O)[C@H]1O[C@@H](n2ccc(=O)[nH]c2=O)[C@H](O)[C@@H]1O)[C@H](O)c1ccc(O)cn1 [nikkomycin Z]
reduction of yeast load in organs (in words) ([1]; 33 mg/kg/day continuous infusion, 96 h (4 days)): sufficient to dramatically reduce the yeast load in organs of infected animals; also recorded: significantly reduce the yeast organ load
decrease in viable yeast per gram of tissue ([1]; 33 mg/kg/day): approximately 1 log10 units
Geometric mean log10 CFU/gm ± S.E.M. (kidney) ([1]; 33 mg/kg/day): 4.23 ± 0.15 log10 CFU/gm
decrease in viable yeast per gram of tissue ([1]; 100 mg/kg/day): ~2 log10 units
Geometric mean log10 CFU/gm ± S.E.M. (kidney) ([1]; 100 mg/kg/day): 3.48 ± 0.15 log10 CFU/gm
Geometric mean log10 CFU/gm ± S.E.M. (kidney), Exp. 1 ([1]; Exp. 1, 330 mg/kg/day continuous infusion over 72 h, inoculum 6.2×10^5 cfu/rat): 3.09 ± .16 log10 CFU/gm
Geometric mean log10 CFU/gm ± S.E.M. (kidney), Exp. 2 ([1]; Exp. 2, 330 mg/kg/day continuous infusion over 96 h, inoculum […]10^6 cfu/rat): 3.73 ± .05 log10 CFU/gm
survival (Candida albicans B311; 33 mg/kg/day continuous infusion 96 h, inoculum 1.05×10^7 cfu/rat, 30 days observation): all animals receiving nikkomycin Z at either 33 or 100 mg/kg/day by continuous infusion survived the entire observation period; also recorded: complete protection of rats against a lethal challenge with Candida albicans
survival (Candida albicans B311; 100 mg/kg/day continuous infusion 96 h, inoculum 1.05×10^7 cfu/rat, 30 days observation): all animals receiving nikkomycin Z at either 33 or 100 mg/kg/day by continuous infusion survived the entire observation period
survival (Candida albicans B311; 330 mg/kg/day continuous infusion 96 h, inoculum 3.2×10^6 cfu/rat, 28 days observation): all animals receiving nikkomycin Z by continuous infusion survived the entire observation period
MRT [2]: 12 min
steady state plasma concentration ([3]; infusion 33 mg/kg/day intravenous after loading dose, 33 mg/kg/day): about 170 ng/ml
Tmax ([3]; rat, plasma, 2 hour loading dose of 20 mg/kg/h, then 33 mg/kg/day intravenous): 60 min
Cmax ([3]; rat, plasma, 2 hour loading dose of 20 mg/kg/h, then 33 mg/kg/day intravenous, read-out: maximum plasma concentration): ~6600 ng/mL
concentration at which C. immitis is rapidly susceptible (Coccidioides immitis): 60 to 100 µM
efficacy as characterized by others (Candida albicans [4]; [7]): modest efficacy; also recorded: limited efficacy
mortality of infected mice (Candida albicans [4]; [7]): a delay in the onset of mortalities in infected mice; also recorded: essentially all mice died shortly after cessation of therapy
promotion of survival and reduction of fungal burden in kidneys (prior studies) (Candida albicans [4]; summary of earlier studies with reasonable delay between challenge and administration (oral, iv bolus, sc)): at best in a fungistatic fashion with only marginal activity in promoting survival and only limited ability to reduce the fungal burden in the kidneys
survival (Candida albicans [5]): animals ultimately succumbed to infection
numbers of yeasts in kidneys / efficacy (C. albicans): treatment did not result in any reduction in numbers of yeasts
protection against experimental candidiasis (Candida): some protection
inhibition of chitin synthase (chitin synthase): potent inhibitor
toxicity (plants, fish, or mammals): no toxicity against plants, fish, or mammals under reasonable doses
chitin synthesis in vivo (chitin synthesis): depress chitin synthesis in vivo

NC(=O)OC[C@H](O)[C@@H](O)[C@H](N)C(=O)N[C@H](C(=O)O)[C@H]1O[C@@H](n2cc(C(=O)O)c(=O)[nH]c2=O)[C@H](O)[C@@H]1O [polyoxin D]
concentration at which C. immitis is rapidly susceptible (Coccidioides immitis): 60 to 100 µM
effect on Candida cells (in words) (Candida albicans [6]): exhibited a phenomenon called "chaining". Although deformed, these cells were able to survive several replications, though ultimately they became sensitive to osmotic pressures and would lyse
